From patent US20110044991A1, “METHODS AND COMPOSITIONS FOR TREATING LYMPHOMA AND MYELOMA” (IRM LLC, priority 2006, published 2011)
Values belong to the molecule of their own block, whether it stands above or below them.

Assays:
Eμ-Myc lymphoma cells = assay: Luciferase assay and light microscopy of luciferased lymphoma cells on stromal layer; format: cell-based, mouse
Description: For Shh pathway inhibition on stroma, 6200 stroma cells were seeded per 96-well. After 24 hours 20,000 luciferased lymphoma cells were seeded on the stroma cells and 2 hours later compound or DMSO was added. Luciferase assay was performed with Bright-glow reagent as described. To generate cells overexpressing Hh pathway members, lymphoma cells were infected with Smo, Smo 535, Smo 562, Gli1 and Fused-pMSCV IRES GFP constructs and then sorted for GFP positive cells.
In order to investigate whether the Hh signalling pathway does indeed contribute to the survival and proliferation of lymphoma cells growing on an intact stromal layer, lymphoma cells were luciferased using a retrovirus expressing a puromycin/Luc fusion cassette. 2×10E4 lymphoma cells constitutively expressing luciferase were added to each 96-well containing a stromal layer (not expressing luciferase) isolated from Cdkn2a^−/− mice. A total of 34 individual Eμ-Myc-lymphomas and 8 Cdkn2a-lymphomas were tested. A luciferase assay was performed as a readout for cell viability and proliferation and results were also documented by light microscopy.

[1] = tested on: lymphoma cells (mixed, B-cell lymphoma, plasmacytoma, plasmoblastoma); assay: Cytokine stimulation of lymphoma cells off stroma, Alamar Blue assay; format: cell-based, mouse; conditions: 2 days after stroma removal; cytokines 0-50 ng/ml; IL-6: plasmacytomas and mixed, IL-7: B-cell and mixed lymphomas, not plasmoblastomas
Description: Luminescence was measured after 0 h, 24 h and 48 h after seeding of 2×10E4 luciferased lymphoma cells on the stroma cells; and F: RT-PCR analysis of transcripts from Hh pathway members and targets in spleen lymphocytes and different lymphoma cell lines.
Cell culture experiments: Lymphoma cells were infected with a retrovirus containing a pMSCV IRES puro-luc sequence and selected for 7 days with puromycin on puromycin-resistant Cdkn2a−/− stroma. […] Both were dissolved as x 1,000 stocks in DMSO. SCF was obtained from RDI, and all other cytokines were obtained from R&D systems. 5E1 anti-ShhN monoclonal antibody was obtained from the developmental hybridoma bank and was used at a concentration of 10 μg/ml. For cytokine stimulation and Shh inhibition in supernatant lymphoma cells were seeded into 96-well plates at a density of 20,000 cells per well and mitochondrial activity of viable cells was measured with an Alamar Blue Assay as described.

IC50 (Eμ-Myc lymphoma cells; most responsive lymphomas, 48 h on stromal layer, read-out: IC50 (concentration needed for 50% of maximal inhibition)): 1 to 3 µM
Molecule: Cc1nn(-c2ccccc2)c(C)c1/C=N/N1CCN(Cc2ccccc2)CC1 [SANT-1]
luciferase activity (viable lymphoma cells) (Eμ-Myc lymphoma cells; Myc-Ly6, 48 hours, 0, 0.5, 1, 5 and 10 μM): reduced in a dose dependant manner

Molecule: SCF: cytokine / growth factor, obtained from RDI
number of viable lymphoma cells / survival after cytokine stimulation [1]: no effect on lymphocyte growth

Molecule: GM-CSF: cytokine / growth factor
number of viable lymphoma cells / survival after cytokine stimulation [1]: no effect on lymphocyte growth

Molecule: IL-6: cytokine / growth factor
number of viable lymphoma cells / survival after cytokine stimulation [1]: enhance survival

B1: IL-11: cytokine / growth factor (protein, UniProt P20809 22-199, looked up)
Interleukin-11: PGPPPGPPRVSPDPRAELDSTVLLTRSLLADTRQLAAQLRDKFPADGDHNLDSLPTLAMSAGALGALQLPGVLTRLRADLLSYLRHVQWLRRAGGSSLKTLEPELGTLQARLDRLLRRLQLLMSRLALPQPPPDPPAPPLAPPSSAWGGIRAAHAILGGLHLTLDWAVRGLLLLKTRL
number of viable lymphoma cells / survival after cytokine stimulation [1]: no effect on lymphocyte growth

B2: IL-7: cytokine / growth factor (protein, UniProt P13232 26-177, looked up)
Interleukin-7: DCDIEGKDGKQYESVLMVSIDQLLDSMKEIGSNCLNNEFNFFKRHICDANKEGMFLFRAARKLRQFLKMNSTGDFDLHLLKVSEGTTILLNCTGQVKGRKPAALGEAQPTKSLEENKSLKEQKKLNDLCFLKRLLQEIKTCWNKILMGTKEH
number of viable lymphoma cells / survival after cytokine stimulation [1]: enhance survival

B3: Wnt3a: growth factor (protein, UniProt P56704 19-352, looked up)
Protein Wnt-3a: SYPIWWSLAVGPQYSSLGSQPILCASIPGLVPKQLRFCRNYVEIMPSVAEGIKIGIQECQHQFRGRRWNCTTVHDSLAIFGPVLDKATRESAFVHAIASAGVAFAVTRSCAEGTAAICGCSSRHQGSPGKGWKWGGCSEDIEFGGMVSREFADARENRPDARSAMNRHNNEAGRQAIASHMHLKCKCHGLSGSCEVKTCWWSQPDFRAIGDFLKDKYDSASEMVVEKHRESRGWVETLRPRYTYFKVPTERDLVYYEASPNFCEPNPETGSFGTRDRTCNVSSHGIDGCDLLCCGRGHNARAERRREKCRCVFHWCCYVSCQECTRVYDVHTCK
number of viable lymphoma cells / survival after cytokine stimulation [1]: no effect on lymphocyte growth
